# Measurements from patent publication US9440964B2, “Pesticidal compositions and processes related thereto” (Dow AgroSciences LLC, priority 2011, dated 2016).
# Read-outs that look alike come from different tables or passages of the source.
# Legend:
# Assay type in all cases: in vivo
# BAW (Spodoptera exigua) = experiment: Bioassay on Beet Armyworm (BAW), 128-well diet tray; settings: Spodoptera exigua, 168 h, read-out: Rating BAW
# Outline: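 Second-instar Spodoptera exigua larvae (one to five per well) placed on artificial diet surface-treated with 50 μg/cm^2 compound in 90:10 acetone-water, dried, eight wells per compound. Held 5–7 days at 25 °C, 14:10 light-dark; percent mortality averaged across wells.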
# CEW (Helicoverpa zea) = experiment: Bioassay on Corn Earworm (CEW), 128-well diet tray; settings: Helicoverpa zea, 168 h, read-out: Rating CEW
# Outline: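 Helicoverpa zea (corn earworm) was tested in a 128-well diet tray. Each 3 mL well received one to five second instar larvae on diet treated with the test material in an acetone-water mixture, applied to eight wells and dried. Trays were sealed with clear self-adhesive covers, kept at 25° C., 14:10 light-dark for five to seven days, then percent mortality was averaged across eight wells.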
# [1] = test system: Green Peach Aphid (GPA) (Myzus persica); experiment: Bioassay on Green Peach Aphid (GPA), cabbage seedling foliar spray; settings: 72 h, read-out: Rating GPA
# Procedure: Certain molecules disclosed in this document were tested against GPA using procedures described in the following example. In the reporting of the results, the “GPA Rating Table” was used (See Table Section).
# Cabbage seedlings grown in 3-inch pots, with 2-3 small (3-5 cm) true leaves, were used as test substrate. The seedlings were infested with 20-50 GPA (wingless adult and nymph stages) one day prior to chemical application. Four pots with individual seedlings were used for each treatment. Test compounds (2 mg) were dissolved in 2 mL of acetone/MeOH (1:1) solvent, forming stock solutions of 1000 ppm test compound. The stock solutions were diluted 5× with 0.025% Tween 20 in H2O to obtain the solution at 200 ppm test compound. A hand-held aspirator-type sprayer was used for spraying a solution to both sides of […] leaves until runoff. Reference plants (solvent check) were sprayed with the diluent only containing 20% by volume of acetone/MeOH (1:1) solvent. Treated plants were held in a holding room for three days at approximately 25° C. and ambient relative humidity (RH) prior to grading. Evaluation was conducted by counting the number of live aphids per plant under a microscope. Percent Control was measured by using Abbott's correction formula (W. S. Abbott, “A Method of Computing the Effectiveness of an Insecticide” J. Econ. Entomol. 18 (1925), pp. 265-267) as follows. Corrected % Control=100*(X−Y)/X • where • X=No. of live aphids on solvent check plants and • Y=No. of live aphids on treated plants
# (§1) The results are indicated in the table entitled “Table ABC: Biological Results” (See Table Section).
# [2] = test system: Yellow Fever Mosquito YFM (Aedes aegypti); experiment: Bioassay on Yellow Fever Mosquito (YFM) larvae, 96-well plate; settings: mortality of about 1 day-old larvae, scored after 3 days
# Procedure: Certain molecules disclosed in this document were tested against YFM using procedures described in the following paragraph. In the reporting of the results, the “YFM Rating Table” was used (See Table Section).
# Master plates containing 400 μg of a molecule dissolved in 100 μL of dimethyl sulfoxide (DMSO) (equivalent to a 4000 ppm solution) are used. A master plate of assembled molecules contains 15 μL per well. To this plate, 135 μL of a 90:10 water:acetone mixture is added to each well. A robot (Biomek® NXP Laboratory Automation Workstation) is programmed to dispense 15 μL aspirations from the master plate into an empty 96-well shallow plate (“daughter” plate). There are 6 reps (“daughter” plates) created per master. The created daughter plates are then immediately infested with YFM larvae.
# The day before plates are to be treated, mosquito eggs are placed in Millipore water containing liver powder to begin hatching (4 g. into 400 ml). After the daughter plates are created using the robot, they are infested with 220 μL of the liver powder/larval mosquito mixture (about 1 day-old larvae). After plates are infested with mosquito larvae, a non-evaporative lid is used to cover the plate to reduce drying. Plates are held at room temperature for 3 days prior to grading. After 3 days, each well is observed and scored based on mortality.
# as §1
# [3] = percent mortality, second instar larvae, 50 μg/cm^2 on diet, five to seven days
# [4] = corrected % control (Abbott), 200 ppm foliar spray on cabbage, three days
SMILES,pest or weed control at 50 µg/cm2 (BAW (Spodoptera exigua)),pest or weed control at 50 µg/cm2 (CEW (Helicoverpa zea)),pest or weed control at 200 ppm ([1]; foliar),pest or weed control at 50 µg/cm2 (BAW (Spodoptera exigua); [3]),pest or weed control at 50 µg/cm2 (CEW (Helicoverpa zea); [3]),"pest or weed control at 200 ppm [1, 4]",Rating YFM [2]
"COc1cc(C)c(N/C(=N/C(=O)Nc2ccc(-c3ncn(-c4ccc(C(F)(F)F)cc4)n3)cc2)SCOC(=O)CNC(=O)OCc2ccccc2)c(C)c1 [Molecule A9, (E)-((N′-(4-Methoxy-2,6-dimethylphenyl)-N-((4-(1-(4-(trifluoromethyl)phenyl)-1H-1,2,4-triazol-3-yl)phenyl)carbamoyl)carbamimidoyl)thio)methyl 2-(((benzyloxy)carbonyl)amino)acetate]",50 to 100%,50 to 100%,0 to 80%,,,,
CCc1ccccc1N/C(S)=N/C(=O)Nc1ccc(-c2ncn(-c3ccc(OC(F)(F)F)cc3)n2)cc1 [Molecule A46],,,,50 to 100%,50 to 100%,0 to 80%,A (80-100)
"COc1ccc(N/C(O)=C/C(=O)Nc2ccc(-c3ncn(-c4ccc(OC(F)(F)F)cc4)n3)cc2)c(C)c1 [Molecule A33, (Z)-3-hydroxy-3-(4-methoxy-2-methylphenylamino)-N-(4-(1-(4-(trifluoromethoxy)phenyl)-1H-1,2,4-triazol-3-yl)phenyl)acrylamide]",,,,50 to 100%,50 to 100%,0 to 80%,
"Cc1cccc(C)c1N1C(=O)CS/C1=N\C(=O)Nc1ccc(-c2ncn(-c3ccc(OC(F)(F)F)cc3)n2)cc1 [Molecule A14, (Z)-1-(3-(2,6-dimethylphenyl)-4-oxothiazolidin-2-ylidene)-3-(4-(1-(4-(trifluoromethoxy)phenyl)-1H-1,2,4-triazol-3-yl)phenyl)urea]",,,,50 to 100%,50 to 100%,0 to 80%,A (80-100)
Cc1cccc(C)c1N/C(S)=N/C(=O)Nc1ccc(-c2ncn(-c3ccc(OC(F)(F)F)cc3)n2)cc1 [Molecule A11],,,,50 to 100%,50 to 100%,0 to 80%,
COc1cc(C)c(N2C(=O)CS/C2=N\C(=O)Nc2ccc(-c3ncn(-c4ccc(OC(F)(F)F)cc4)n3)cc2)c(C)c1 [Molecule A44],,,,50 to 100%,50 to 100%,0 to 80%,A (80-100)
"COc1cc(C)c(N/C(=N/C(=O)Nc2ccc(-c3ncn(-c4ccc(OC(F)(F)F)cc4)n3)cc2)SCOC(=O)C(C)C)c(C)c1 [Molecule A7, (E)-(N′-(2,6-Dimethyl-4-methoxyphenyl)-N-(4-(1-(4-(trifluoromethyoxy)phenyl)-1H-1,2,4-triazol-3-yl)phenylcarbamoyl)carbamimidoylthio)methyl isobutyrate]",,,,50 to 100%,50 to 100%,0 to 80%,
"Cc1cccc(C)c1N/C(=N/C(=O)Nc1ccc(-c2ncn(-c3ccc(OC(F)(F)F)cc3)n2)cc1)SCOC(=O)C(C)C [Molecule A4, (E)-(N′-(2,6-Dimethylphenyl)-N-(4-(1-(4-(trifluoromethyoxy)phenyl)-1H-1,2,4-triazol-3-yl)phenylcarbamoyl)carbamimidoylthio)methyl isobutyrate]",,,,50 to 100%,50 to 100%,0 to 80%,A (80-100)
